Measured values taken from ChEMBL document CHEMBL1681676, “The design and synthesis of novel N-hydroxyformamide inhibitors of ADAM-TS4 for the treatment of osteoarthritis” (Bioorg Med Chem Lett, 2011).

target: Matrix metalloproteinase-14 (Homo sapiens, UniProt P50281); test: Inhibition of recombinant human MMP14 assessed as substrate cleavage by measuring increase in fluorescence after 16 hrs

Row | Structure (SMILES) | IC50
1 | Cc1cc(F)ccc1CCC1CCN(S(=O)(=O)C[C@](C)(C[C@H](C)c2ncc(F)cn2)N(O)C=O)CC1 | 160 nM
2 | C[C@@H](C[C@@](C)(CS(=O)(=O)N1CCC(CCc2cc(F)ccc2Cl)CC1)N(O)C=O)c1ncc(F)cn1 | 56 nM
3 | Cc1nsc(C)c1CCC1CCN(S(=O)(=O)C[C@](C)(C[C@H](C)c2ncc(F)cn2)N(O)C=O)CC1 | 2600 nM
4 | C[C@@H](C[C@@](C)(CS(=O)(=O)N1CCC(CCc2ccc(S(C)(=O)=O)cc2Cl)CC1)N(O)C=O)c1ncc(F)cn1 | > 3600 nM
5 | C[C@@H](C[C@@](C)(CS(=O)(=O)N1CCC(CCc2ccc(C(F)(F)F)cc2C2CC2)CC1)N(O)C=O)c1ncc(F)cn1 | 18000 nM
6 | C[C@@H](C[C@@](C)(CS(=O)(=O)N1CCC(CCc2ccc(C(F)(F)F)cc2Cl)CC1)N(O)C=O)c1ncc(F)cn1 | 900 nM

target: T1, Interstitial collagenase (Homo sapiens, UniProt P03956); test: Inhibition of recombinant human MMP1 assessed as substrate cleavage by measuring increase in fluorescence after 16 hrs
T1 sequence (P03956 whole entry): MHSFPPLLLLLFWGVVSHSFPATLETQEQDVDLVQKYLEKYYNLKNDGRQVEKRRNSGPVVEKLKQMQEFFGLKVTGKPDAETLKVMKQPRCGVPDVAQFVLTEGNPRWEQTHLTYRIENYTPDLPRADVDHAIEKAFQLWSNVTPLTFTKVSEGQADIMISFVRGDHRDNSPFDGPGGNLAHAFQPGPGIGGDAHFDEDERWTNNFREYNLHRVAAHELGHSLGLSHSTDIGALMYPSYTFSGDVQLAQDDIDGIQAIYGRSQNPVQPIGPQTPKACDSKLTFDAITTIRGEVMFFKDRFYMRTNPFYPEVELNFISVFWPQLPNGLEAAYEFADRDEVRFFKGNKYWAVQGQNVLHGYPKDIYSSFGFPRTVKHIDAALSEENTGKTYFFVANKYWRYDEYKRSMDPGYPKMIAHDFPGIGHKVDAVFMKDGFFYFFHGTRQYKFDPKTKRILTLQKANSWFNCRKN

Row | Structure (SMILES) | IC50
7 | Cc1cc(F)ccc1CCC1CCN(S(=O)(=O)C[C@](C)(C[C@H](C)c2ncc(F)cn2)N(O)C=O)CC1 | > 8100 nM
8 | C[C@@H](C[C@@](C)(CS(=O)(=O)N1CCC(CCc2cc(F)ccc2Cl)CC1)N(O)C=O)c1ncc(F)cn1 | > 9600 nM
9 | C[C@@H](C[C@@](C)(CS(=O)(=O)N1CCC(CCc2ccc(S(C)(=O)=O)cc2Cl)CC1)N(O)C=O)c1ncc(F)cn1 | > 70000 nM
10 | C[C@@H](C[C@@](C)(CS(=O)(=O)N1CCC(CCc2ccc(C(F)(F)F)cc2C2CC2)CC1)N(O)C=O)c1ncc(F)cn1 | > 10000 nM
11 | C[C@@H](C[C@@](C)(CS(=O)(=O)N1CCC(CCc2ccc(C(F)(F)F)cc2Cl)CC1)N(O)C=O)c1ncc(F)cn1 | > 100000 nM

target: T2, A disintegrin and metalloproteinase with thrombospondin motifs 4 (Homo sapiens, UniProt O75173); test: Inhibition of ADAMTS-4 assessed as substrate cleavage by measuring increase in fluorescence after 16 hrs
T2 sequence (O75173 whole entry): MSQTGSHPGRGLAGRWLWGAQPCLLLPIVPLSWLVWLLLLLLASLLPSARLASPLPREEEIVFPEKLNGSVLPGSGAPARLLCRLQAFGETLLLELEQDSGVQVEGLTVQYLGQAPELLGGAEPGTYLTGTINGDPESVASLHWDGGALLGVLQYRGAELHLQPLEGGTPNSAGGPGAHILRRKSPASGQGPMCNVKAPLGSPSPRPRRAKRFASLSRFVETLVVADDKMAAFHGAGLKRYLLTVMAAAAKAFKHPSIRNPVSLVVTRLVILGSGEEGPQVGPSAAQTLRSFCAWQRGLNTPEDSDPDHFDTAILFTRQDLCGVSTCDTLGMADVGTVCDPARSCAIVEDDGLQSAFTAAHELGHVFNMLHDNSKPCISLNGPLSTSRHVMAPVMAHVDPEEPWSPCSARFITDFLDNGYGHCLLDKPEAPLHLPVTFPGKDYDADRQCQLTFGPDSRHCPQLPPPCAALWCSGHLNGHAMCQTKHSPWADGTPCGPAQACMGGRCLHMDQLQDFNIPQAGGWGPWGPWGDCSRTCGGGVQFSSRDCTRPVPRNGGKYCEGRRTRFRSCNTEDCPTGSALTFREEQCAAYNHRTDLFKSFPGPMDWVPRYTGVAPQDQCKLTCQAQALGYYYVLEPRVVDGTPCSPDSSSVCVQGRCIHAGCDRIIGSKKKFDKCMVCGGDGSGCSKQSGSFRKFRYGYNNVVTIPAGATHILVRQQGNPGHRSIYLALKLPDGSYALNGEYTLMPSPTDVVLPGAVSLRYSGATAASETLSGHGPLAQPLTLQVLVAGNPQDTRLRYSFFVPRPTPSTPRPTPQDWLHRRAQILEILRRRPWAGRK

Row | Structure (SMILES) | IC50
12 | Cc1cc(F)ccc1CCC1CCN(S(=O)(=O)C[C@](C)(C[C@H](C)c2ncc(F)cn2)N(O)C=O)CC1 | 0.18 nM
13 | C[C@@H](C[C@@](C)(CS(=O)(=O)N1CCC(CCc2cc(F)ccc2Cl)CC1)N(O)C=O)c1ncc(F)cn1 | 2.8 nM
14 | Cc1nsc(C)c1CCC1CCN(S(=O)(=O)C[C@](C)(C[C@H](C)c2ncc(F)cn2)N(O)C=O)CC1 | 0.26 nM
15 | C[C@@H](C[C@@](C)(CS(=O)(=O)N1CCC(CCc2ccc(S(C)(=O)=O)cc2Cl)CC1)N(O)C=O)c1ncc(F)cn1 | 0.57 nM
16 | C[C@@H](C[C@@](C)(CS(=O)(=O)N1CCC(NCc2ccc(Cl)cc2Cl)CC1)N(O)C=O)c1ncc(F)cn1 | 2200 nM
17 | C[C@@H](C[C@@](C)(CS(=O)(=O)N1CCC(CCc2ccc(C(F)(F)F)cc2C2CC2)CC1)N(O)C=O)c1ncc(F)cn1 | 0.94 nM
18 | C[C@@H](C[C@@](C)(CS(=O)(=O)N1CCC(CCc2ccc(C(F)(F)F)cc2Cl)CC1)N(O)C=O)c1ncc(F)cn1 | 0.48 nM

target: Disintegrin and metalloproteinase domain-containing protein 17 (Homo sapiens, UniProt P78536); test: Inhibition of TACE assessed as substrate cleavage by measuring increase in fluorescence after 16 hrs
Sequence (P78536 whole entry, the tested form may be a part): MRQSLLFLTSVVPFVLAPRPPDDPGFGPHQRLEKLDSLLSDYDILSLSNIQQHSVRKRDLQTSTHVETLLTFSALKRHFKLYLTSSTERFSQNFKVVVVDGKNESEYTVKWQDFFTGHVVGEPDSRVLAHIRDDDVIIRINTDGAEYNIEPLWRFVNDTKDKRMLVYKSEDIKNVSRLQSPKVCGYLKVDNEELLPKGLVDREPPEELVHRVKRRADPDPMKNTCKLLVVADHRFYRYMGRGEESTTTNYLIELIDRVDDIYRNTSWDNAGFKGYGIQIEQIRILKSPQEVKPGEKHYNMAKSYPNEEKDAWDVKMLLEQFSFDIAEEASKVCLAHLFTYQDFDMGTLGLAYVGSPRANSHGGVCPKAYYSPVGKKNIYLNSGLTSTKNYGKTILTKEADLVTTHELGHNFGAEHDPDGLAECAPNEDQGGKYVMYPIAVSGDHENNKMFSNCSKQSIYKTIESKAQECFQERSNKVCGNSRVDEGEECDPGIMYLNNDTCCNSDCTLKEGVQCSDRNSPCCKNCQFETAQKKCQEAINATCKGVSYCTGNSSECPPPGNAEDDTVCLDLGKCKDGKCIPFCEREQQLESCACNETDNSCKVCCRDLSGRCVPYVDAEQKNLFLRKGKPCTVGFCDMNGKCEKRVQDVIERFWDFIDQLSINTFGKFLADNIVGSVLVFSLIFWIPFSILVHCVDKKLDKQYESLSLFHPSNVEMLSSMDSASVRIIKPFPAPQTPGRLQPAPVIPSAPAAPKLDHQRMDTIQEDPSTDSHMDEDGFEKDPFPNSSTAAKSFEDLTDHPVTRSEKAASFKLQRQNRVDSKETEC

Row | Structure (SMILES) | IC50
19 | Cc1cc(F)ccc1CCC1CCN(S(=O)(=O)C[C@](C)(C[C@H](C)c2ncc(F)cn2)N(O)C=O)CC1 | 21 nM
20 | C[C@@H](C[C@@](C)(CS(=O)(=O)N1CCC(CCc2ccc(S(C)(=O)=O)cc2Cl)CC1)N(O)C=O)c1ncc(F)cn1 | 5500 nM
21 | C[C@@H](C[C@@](C)(CS(=O)(=O)N1CCC(CCc2ccc(C(F)(F)F)cc2C2CC2)CC1)N(O)C=O)c1ncc(F)cn1 | 3200 nM

target: Collagenase 3 (Homo sapiens, UniProt P45452); test: Inhibition of recombinant human MMP13 assessed as substrate cleavage by measuring increase in fluorescence after 16 hrs

Row | Structure (SMILES) | IC50
22 | Cc1cc(F)ccc1CCC1CCN(S(=O)(=O)C[C@](C)(C[C@H](C)c2ncc(F)cn2)N(O)C=O)CC1 | 530 nM
23 | C[C@@H](C[C@@](C)(CS(=O)(=O)N1CCC(CCc2cc(F)ccc2Cl)CC1)N(O)C=O)c1ncc(F)cn1 | 570 nM
24 | Cc1nsc(C)c1CCC1CCN(S(=O)(=O)C[C@](C)(C[C@H](C)c2ncc(F)cn2)N(O)C=O)CC1 | 4600 nM
25 | C[C@@H](C[C@@](C)(CS(=O)(=O)N1CCC(CCc2ccc(S(C)(=O)=O)cc2Cl)CC1)N(O)C=O)c1ncc(F)cn1 | 350 nM
26 | C[C@@H](C[C@@](C)(CS(=O)(=O)N1CCC(CCc2ccc(C(F)(F)F)cc2C2CC2)CC1)N(O)C=O)c1ncc(F)cn1 | 17000 nM
27 | C[C@@H](C[C@@](C)(CS(=O)(=O)N1CCC(CCc2ccc(C(F)(F)F)cc2Cl)CC1)N(O)C=O)c1ncc(F)cn1 | 260 nM

target: 72 kDa type IV collagenase (Homo sapiens, UniProt P08253); test: Inhibition of recombinant human MMP2 assessed as substrate cleavage by measuring increase in fluorescence after 16 hrs
Sequence (P08253 whole entry): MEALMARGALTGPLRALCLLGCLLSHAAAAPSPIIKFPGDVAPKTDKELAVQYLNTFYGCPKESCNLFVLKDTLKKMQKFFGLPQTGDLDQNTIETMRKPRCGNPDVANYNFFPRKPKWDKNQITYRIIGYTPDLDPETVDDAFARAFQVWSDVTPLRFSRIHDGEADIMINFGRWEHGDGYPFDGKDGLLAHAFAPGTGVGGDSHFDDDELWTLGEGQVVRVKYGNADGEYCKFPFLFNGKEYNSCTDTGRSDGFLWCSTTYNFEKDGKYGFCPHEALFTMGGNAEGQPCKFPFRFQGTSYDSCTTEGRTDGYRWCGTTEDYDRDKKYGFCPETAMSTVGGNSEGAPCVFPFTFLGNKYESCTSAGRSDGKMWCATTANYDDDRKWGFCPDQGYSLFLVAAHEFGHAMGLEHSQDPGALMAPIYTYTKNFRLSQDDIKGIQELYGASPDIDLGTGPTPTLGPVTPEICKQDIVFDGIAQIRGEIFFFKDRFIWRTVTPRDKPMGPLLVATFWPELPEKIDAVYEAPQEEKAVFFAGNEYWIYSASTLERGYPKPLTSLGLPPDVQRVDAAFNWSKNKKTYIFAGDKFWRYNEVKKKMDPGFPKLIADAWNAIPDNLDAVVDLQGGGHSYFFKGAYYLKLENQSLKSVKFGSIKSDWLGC

Row | Structure (SMILES) | IC50
28 | Cc1cc(F)ccc1CCC1CCN(S(=O)(=O)C[C@](C)(C[C@H](C)c2ncc(F)cn2)N(O)C=O)CC1 | 120 nM
29 | C[C@@H](C[C@@](C)(CS(=O)(=O)N1CCC(CCc2cc(F)ccc2Cl)CC1)N(O)C=O)c1ncc(F)cn1 | 500 nM
30 | Cc1nsc(C)c1CCC1CCN(S(=O)(=O)C[C@](C)(C[C@H](C)c2ncc(F)cn2)N(O)C=O)CC1 | 2400 nM
31 | C[C@@H](C[C@@](C)(CS(=O)(=O)N1CCC(CCc2ccc(S(C)(=O)=O)cc2Cl)CC1)N(O)C=O)c1ncc(F)cn1 | 180 nM
32 | C[C@@H](C[C@@](C)(CS(=O)(=O)N1CCC(CCc2ccc(C(F)(F)F)cc2C2CC2)CC1)N(O)C=O)c1ncc(F)cn1 | > 9100 nM
33 | C[C@@H](C[C@@](C)(CS(=O)(=O)N1CCC(CCc2ccc(C(F)(F)F)cc2Cl)CC1)N(O)C=O)c1ncc(F)cn1 | 170 nM
